Tests used:
[1] = tested on: B. stearothermophilus 50S; test: Peptidyl transferase reactivity of the crosslinked B. stearothermophilus complex; assay type: biochemical; details: minimal P-site substrates
Experimental: (§1) Kinetic analysis of crosslinked ribosomal complex: Crosslinked 50S subunits were separated from 30S subunits, gene 32 mRNA, and deacylated tRNA^Phe on 5%-20% sucrose gradients in 10 mM Tris-Cl, pH 7.5, 30 mM NH4Cl, and 1 mM MgCl2, and spun in an SW41 rotor at 19,000 rpm for 16 hours. Excess sucrose was removed and the buffer exchanged to 20 mM Tris, pH 7.5, 100 mM NH4Cl, and 5 mM MgCl2 using Centricon 100 tubes spun at 2600 rpm in an SS34 rotor. Peptidyl transferase assays were done as follows: crosslinked 50S subunit complexes (0.5 μM) were incubated in standard fragment reaction conditions (50 mM Tris, pH 8.3, 0.4 M potassium acetate (KOAc), 60 mM MgCl2, and 33% MeOH) with CACCA-(N-Ac-Phe) (2 μM). Aliquots were removed from the reaction at the indicated times, rRNAs phenol extracted, digested with RNase T1, and the fragments resolved on 24% polyacrylamide/6 M urea gels. […] When incubated with ribosomes at these concentrations, these antibiotics protect specific positions in 16S and 23S rRNA from chemical modification. […] Ribosomal RNAs were phenol extracted and analyzed on a 3.8% polyacrylamide—7 M urea gel. […]

[2] = tested on: 23S rRNA of E. coli tight-couple 70S ribosomes; test: UV crosslinking of s^4TCPm to ribosomes; assay type: binding
Experimental: (§2) Crosslinking of ribosomes by s^4TCPm: Tight-couple E. coli 70S ribosomes (2 μM) were incubated with 1.2 equivalents (2.4 μM) of gene 32 mRNA and of deacylated CF23 tRNA^Phe in 20 mM Tris, pH 7.5, 30 mM MgCl2, 50 mM NH4Cl, 6 mM 2-mercaptoethanol, and 10% MeOH. Saturating s^4TCPm (20 μM) (or [^32P]-s^4TCPm) was then added and the mixture was incubated at 37° C. for 10 minutes. Crosslinking of s^4TCPm to B. stearothermophilus 70S ribosomes was performed under similar conditions except with 30 mM Tris pH 7.5, 10 mM MgCl2, and 330 mM KCl. Complexes were exposed for varying lengths of time to a hand-held UV light source (UVL-56, Blak-Ray Lamp, UVP, Inc.—366 nm) at a distance of 3 cm. […] Analysis of the amount of substrate crosslinked to the r-proteins was determined as described by Breitmeyer and Noller, J. Mol. Biol., 1976, 101:297-306.
Crosslinking to the peptidyl transferase A site: To target binding of the crosslinking reagent specifically to the peptidyl transferase A site, the P site of E. coli tight-couple 70S ribosomes, programed with a shortened version of bacteriophage T4 gene 32 mRNA, was filled with deacylated tRNA^Phe, followed by binding of radioactively labeled [^32P]-s^4TCPm (FIG. 3B). […] Total RNA was prepared from the UV-irradiated ribosomal complexes by phenol extraction and analyzed on a 3.8% denaturing polyacrylamide gel. […]

E. coli 50S subunit = test: Peptidyl transferase reactivity of the crosslinked complex; assay type: biochemical; details: CACCA-(N-Ac-Phe), fragment reaction conditions
Experimental: as §1

[3] = tested on: B. stearothermophilus 70S ribosomes 23S rRNA; test: UV crosslinking of s^4TCPm to B. stearothermophilus ribosomes; assay type: binding; details: compared with E. coli ribosomes
Experimental: as §2, with “cm. Intact rRNAs were phenol extracted, and resolved on 3.8% polyacrylamide/7 M urea gels.” for “cm.”
The position of the crosslinked A-site substrate was first localized with a series of RNase H digestions to the region between positions 2538 and 2593 of 23S rRNA. Assignment of the site of crosslinking to position G2553 was achieved using primer extension analysis. Because of the impaired ability of reverse transcriptase to read modified bases on the rRNA template, a major cDNA product was obtained terminating one nucleotide 3′ to the modified base. […]

[4] = tested on: peptidyl transferase A site of the 50S subunit; test: Kinetic characterization of A-site substrates in the peptidyl transferase fragment reaction; assay type: biochemical; details: fragment reaction conditions, P-site substrate N-Ac-Met-ACCACC
Experimental: Synthesis of 4-thio-dT-p-C-p-puromycin 5′-Dimethoxytrityl-Nα-trifluoroacetyl-puromycin was attached to alkylamine-derivatized controlled pore glass via a 2′-succinate linkage by standard methods. See, Atkinson and Smith, Solid Phase Synthesis of Oligodeoxyribonucleotides by the Phosphate-triester Method, in Oligonucleotide Synthesis: A Practical Approach, Oxford: IRL Press, pp. 35-81, 1985. 4-Thio-dT-p-C-p-Puromycin (s^4TCPm) was prepared by standard phosphoramidite chemistry using the solid-phase version of puromycin, and rC and 4-thio-dT phosphoramidites (Glen Research Corporation, Sterling, Va.). Deprotection was performed by treatment with 3:1 NH4OH:MeOH/50 mM NaSH overnight at 55° C. Subsequently, 40 equivalents of 1 M tetrabutylammonium fluoride (TBAF) in tetrahydrofuran (THF) were added to the dried product and incubated overnight at room temperature. Finally, 20 mM triethylamine-acetate (pH. 7.0) was added to the reaction mixture, loaded directly on a C18 HPLC column, and eluted with increasing concentrations of acetonitrile (CH3CN). Multiple peaks were collected and the purity of the products was analyzed on a 20% polyacrylamide/7M urea gel following 5′-[^32P]-end-labelling using polynucleotide kinase. Although two peaks appeared to be relatively pure by this analysis, only the slowest migrating peak on the HPLC had any crosslinking ability. Kinetic characterization of s^4TCPm was performed using the tRNA fragment N-Ac-Met-ACCACC, as a P-site substrate, using fragment reaction conditions, and paper electrophoresis analysis of the resulting product, s^4TCPm-N-Ac-Met, as described by Green and Noller, RNA, 1996, 2:1011-1021. This analysis was complicated by the apparent affinity of the compound for both the A and P sites at high concentrations. The P-site affinity may be attributable to wobble pairing between 4-thio-dT (which mimics C74 of tRNA) and G2252 of 23S rRNA. See, Samaha et al., Nature 1995, 377:309-314. […]

23S rRNA (2555 loop) = test: Antibiotic inhibition of crosslinking by s^4TCPm to 23S rRNA; assay type: binding, E. coli; details: antibiotics 0.1 mM (neomycin 0.01 mM, puromycin 1 mM); limiting [32P]-s^4TCPm
Experimental: FIGS. 5A and 5B are graphs that indicate antibiotic inhibition of crosslinking by s^4TCPm to 23S rRNA (5A) and of peptidyl transferase activity of crosslinked complex (s^4TCPm-50S) (5B). Values were normalized to 1.0 for reactions where no antibiotics were included.
Kinetic analysis of crosslinked ribosomal complex: Crosslinked 50S subunits were separated from 30S subunits, gene 32 mRNA, and deacylated tRNA^Phe on 5%-20% sucrose gradients in 10 mM Tris-Cl, pH 7.5, 30 mM NH4Cl, and 1 mM MgCl2, and spun in an SW41 rotor at 19,000 rpm for 16 hours. Excess sucrose was removed and the buffer exchanged to 20 mM Tris, pH 7.5, 100 mM NH4Cl, and 5 mM MgCl2 using Centricon 100 tubes spun at 2600 rpm in an SS34 rotor. Peptidyl transferase assays were done as follows: crosslinked 50S subunit complexes (0.5 μM) were incubated in standard fragment reaction conditions (50 mM Tris, pH 8.3, 0.4 M potassium acetate (KOAc), 60 mM MgCl2, and 33% MeOH) with CACCA-(N-Ac-Phe) (2 μM). Aliquots were removed from the reaction at the indicated times, rRNAs phenol extracted, digested with RNase T1, and the fragments resolved on 24% polyacrylamide/6 M urea gels. […] When incubated with ribosomes at these concentrations, these antibiotics protect specific positions in 16S and 23S rRNA from chemical modification. Antibiotic inhibition of crosslinking was performed using limiting [^32P]-s^4TCPm and a single time point (2 minutes) of exposure […] to long-wave length (366 nm) UV light (in the linear range of the reaction) under standard conditions. Ribosomal RNAs were phenol extracted and analyzed on a 3.8% polyacrylamide—7 M urea gel. Antibiotic inhibition of PT activity was performed with the fragment P-site substrate, CACCA-(N-Ac-Phe), supplied at a concentration of 0.3 μM; a single linear time point of 4 minutes was used for analysis.
While sparsomycin is known to stabilize P-site substrate binding, it also competes effectively for binding with puromycin in the A site. As sparsomycin is ineffective in the context of a covalently tethered puromycin substrate, but active in preventing the crosslinking of s^4TCPm, it seems likely that its mode of inhibition results primarily from its effect on A-site interactions. Puromycin had no effect on the peptidyl transferase activity of the crosslinked complex, consistent with the high effective concentration of the s^4TCPm substrate covalently bound in the A site. These effects of the various antibiotics on the activity of the 50S subunit-s^4TCPm complex provide further evidence that the synthetic substrate, s^4TCPm, is crosslinked to its physiologically correct binding site.

[5] = tested on: crosslinked 50S subunit-s^4TCPm complex; test: Antibiotic inhibition of peptidyl transferase activity of the crosslinked complex (s^4TCPm-50S); assay type: biochemical, E. coli; details: antibiotics 0.1 mM (neomycin 0.01 mM, puromycin 1 mM); CACCA-(N-Ac-Phe) 0.3 μM, 4 minutes
Experimental: Kinetic analysis of crosslinked ribosomal complex: Crosslinked 50S subunits were separated from 30S subunits, gene 32 mRNA, and deacylated tRNA^Phe on 5%-20% sucrose gradients in 10 mM Tris-Cl, pH 7.5, 30 mM NH4Cl, and 1 mM MgCl2, and spun in an SW41 rotor at 19,000 rpm for 16 hours. Excess sucrose was removed and the buffer exchanged to 20 mM Tris, pH 7.5, 100 mM NH4Cl, and 5 mM MgCl2 using Centricon 100 tubes spun at 2600 rpm in an SS34 rotor. Peptidyl transferase assays were done as follows: crosslinked 50S subunit complexes (0.5 μM) were incubated in standard fragment reaction conditions (50 mM Tris, pH 8.3, 0.4 M potassium acetate (KOAc), 60 mM MgCl2, and 33% MeOH) with CACCA-(N-Ac-Phe) (2 μM). Aliquots were removed from the reaction at the indicated times, rRNAs phenol extracted, digested with RNase T1, and the fragments resolved on 24% polyacrylamide/6 M urea gels. […] Antibiotic inhibition of PT activity was performed with the fragment P-site substrate, CACCA-(N-Ac-Phe), supplied at a concentration of 0.3 μM; a single linear time point of 4 minutes was used for analysis.

Compound | Km [4] | inhibition of crosslinking of s^4TCPm to the 2555 loop of 23S rRNA (23S rRNA (2555 loop)) | inhibition of peptidyl transferase reactivity of the crosslinked complex [5] | also measured
4-thio-dT-p-C-p-Puromycin [s^4TCPm] | ~10 µM | – | – | peptidyl transferase kinetics slower than E. coli complex [1]: ca. 10 fold; crosslinking to ribosomal proteins [2]: absence of significant crosslinking; UV irradiation time at which the crosslinking reaction was complete ([2]; 366 nm UV): 10 min; crosslinked population reacted with P-site substrate (E. coli 50S subunit; 2 minutes): approximately 50%; crosslinked population reacted with P-site substrate (E. coli 50S subunit; 12 minutes): 85%; crosslinking efficiency with B. stearothermophilus ribosomes [3]: similarly efficient
COc1ccc(CC(N)C(=O)NC2C(COP(=O)(O)OC3C(CO)OC(n4ccc(N)nc4=O)C3O)OC(n3cnc4c(N(C)C)ncnc43)C2O)cc1 (stereo not shown) [CPm, C-p-Puromycin] | ~10 µM | – | – | –
CO[C@@H]1[C@@H](O[C@@H]2O[C@H](C)[C@@H](O[C@H]3C[C@@](C)(O)[C@@H](OC(=O)CC(C)C)[C@H](C)O3)[C@H](N(C)C)[C@H]2O)[C@@H](CC=O)C[C@@H](C)C(=O)/C=C/[C@@H]2O[C@@H]2C[C@@H](C)OC(=O)C[C@H]1OC(C)=O [carbomycin] | – | specifically inhibited | effectively inhibited | –
O=C(N[C@H](CO)[C@H](O)c1ccc([N+](=O)[O-])cc1)C(Cl)Cl [chloramphenicol] | – | specifically inhibited | effectively inhibited | –
CC[C@H]1OC(=O)[C@H](C)[C@@H](O[C@H]2C[C@@](C)(OC)[C@@H](O)[C@H](C)O2)[C@H](C)[C@@H](O[C@@H]2O[C@H](C)C[C@H](N(C)C)[C@H]2O)[C@](C)(O)C[C@@H](C)C(=O)[C@H](C)[C@@H](O)[C@]1(C)O [erythromycin] | – | no effect | – | –
COc1ccc(C[C@H](N)C(=O)N[C@H]2[C@@H](O)[C@H](n3cnc4c(N(C)C)ncnc43)O[C@@H]2CO)cc1 [puromycin] | ~400 µM | specifically inhibited | no effect | –
CSC[S@+]([O-])C[C@H](CO)NC(=O)/C=C/c1c(C)[nH]c(=O)[nH]c1=O [sparsomycin] | – | strongly inhibited | no inhibitory effect | –
neomycin | – | no effect | – | –

Reference: patent publication US6358713B1, “In vitro ribosome evolution” (Johns Hopkins University, priority 1999, dated 2002)
